Laboratory results reported in patent publication US20240009180A1, “MEDICINE FOR ALLEVIATING NEUROPATHIC PAIN” (Asahi Kasei Pharma Corporation, priority 2020, published 2024).
Where a name gives a salt, the structure may show the parent alone.

What was measured:
[1] = tested on: hypersensitivity to mechanical stimulation; details: in vivo; cited from earlier work
[2] = Central tissue distribution in humans: exposure to the cerebrospinal fluid after repeated oral administration; format: in vivo, human; details: healthy subjects
[3] = Study for pharmacokinetics in blood after oral administration to rats; format: in vivo; details: male, Crl: CD (SD), rat, 30 mg/kg, oral 30 mg/kg once daily
Procedure: Rats (strain: Crl: CD (SD), male, 7 weeks old, with diet) were orally administered a methylcellulose suspension containing a P2X7 receptor antagonist compound (Compound 7 or Compound 10). Then blood was collected from rats 15 and 30 minutes, 1, 2, 4, 8 and 24 hours after the administration, and the concentration of the compound contained in the collected blood was measured. The dose of the compound per dose was 30 mg/kg, and the concentration of the compound in the suspension was 3 mg/mL. Administration was carried out once daily for 4 consecutive days.
The variations of a blood level of the compound with the passage of time were analyzed by a conventional method, and the pharmacokinetic parameters were estimated.

[4] = Study for assessing the central tissue distribution after oral administration to rats; format: in vivo, rat; details: for concentration at 1 h: male, Crl: CD (SD), plasma; for concentration at 1 h / Brain concentration / Spinal cord concentration: rat, oral 30 mg/kg, 1 hour after administration, mean value; for Distribution to blood and central tissue (in words): oral administration
Procedure: Rats (strain: Crl: CD (SD), male, 7 weeks old, with diet) were orally administered a methylcellulose suspension containing a P2X7 receptor antagonist compound (Compound 7 or Compound 10). Then central tissue was collected from rats 1 hour after its administration, and the compound distribution to the collected central tissue was assessed. The dose of the compound per dose was 30 mg/kg, and the concentration of the compound in the suspension was 3 mg/mL.
The study was carried out with n=2 or n=3.

CCI model rats = experiment: Rat chronic stenosis injury model (CCI or Bennett model), Randall-Selitto test; format: in vivo; details: 2, 10 or 50 mg/kg single oral dose 3 hours before measurement, 12 days after CCI surgery, vs solvent group
Procedure: In order to confirm the effect of Compound 7 on neuropathic pain, the effect of Compound 7 on hyperalgesia caused by mechanical stimulation occurring in CCI model rats was investigated. Compound 7 was orally administered to rats as an investigational drug, and the following studies were carried out.
As an experimental animal, a 7-week-old Sprague Dawley male rat (220.4 to 328.0 g) was used. The surgery was performed according to the procedure described in Bennett et al., Pain, 1988, 33, 87-107. Under isoflurane anesthesia, the right sciatic nerve was exposed via a blunt incision in the biceps femoris. Proximal to the bifurcation of the sciatic nerve, the nerve was freed of adhering tissue and 4 loose ligatures of 4-0 silk were tied around the nerve. Spacing between ligatures was approximately 1 mm. The muscle was sutured in layers, and the skin closed with silk suture.
The experimental animals were composed of four groups: a solvent administration group and each administration group of either 2, 10 or 50 mg/kg of Compound 7 (Compound 7-administration group). Compound 7 was orally administered to the Compound 7-administration group in a single dose 3 hours before the measurement test performed 12 days after CCI surgery. […]
The baseline threshold value was measured before CCI surgery, and then the pain threshold value was measured 12 days after surgery.

SNL model rats = experiment: Rat spinal nerve ligation model (SNL or Chung model), Dynamic Plantar Aesthesiometer test; format: in vivo; details: 50 mg/kg oral once a day for 7 days from the 15th day after SNL surgery, vs solvent group
Procedure: In order to confirm the effect of Compound 7 on neuropathic pain, the effect of Compound 7 on allodynia caused by mechanical stimulation occurring in SNL model rats was investigated. Compound 7 was orally administered to rats as a test drug, and the following tests were carried out.
As an experimental animal, a 6-week-old Sprague Dawley male rat (180 to 210 g) was used. The surgery was performed according to the procedure described in Chung et al., Pain, 1992, 50, 355-363. Under isoflurane anesthesia, a longitudinal incision was made in the dorsal skin from the thoracic spine to the sacral spine level. After incision and isolation of the paravertebral muscles, the L5 and L6 transverse processes were removed to expose the L5 and L6 spinal nerves. These nerves were ligated with 5-0 silk suture. Sham operated animals were treated identically with the exception that the nerves were not ligated. The muscle was sutured in layers, and the skin was closed with silk suture.
The experimental animals consisted of 6 groups: a sham operation group, a solvent administration group, and each administration group of either 0.4, 2, 10, or 50 mg/kg of Compound 7 (Compound 7-administration group). […]
The pain threshold for mechanical stimulation in the above rats, was measured using a Dynamic Plantar Aesthesiometer (manufactured by Ugo Basile).

[5] = tested on: animal models of bone cancer; details: cited from earlier work
neuropathic pain in rats = details: cited from earlier work
neuropathy model rats = details: 30 mg/kg; cited from earlier work
[6] = tested on: amphetamine-induced hypersensitivity; details: 30 mg/kg; cited from earlier work

| AUC(0-t) ([3]; Day 1 of administration) [µM·h] | Cmax ([3]; Day 1 of administration) [µM] | Tmax ([3]; Day 1 of administration) [min] | AUC(0-t) ([3]; Day 4 of administration) [µM·h] | Cmax ([3]; Day 4 of administration) [µM] | Tmax ([3]; Day 4 of administration) [min] | concentration at 1 h [4] [µM] | Brain concentration [4] [nmol/g tissue] | Spinal cord concentration [4] [nmol/g tissue] | Structure (SMILES) | Distribution to blood and central tissue (in words) [4] | also measured |
| --- | --- | --- | --- | --- | --- | --- | --- | --- | --- | --- | --- |
| – | – | – | – | – | – | – | – | – | Clc1cccc(-c2nnnn2Cc2cccnc2)c1Cl [A438079 hydrochloride] | – | Effect on development of hypersensitivity to mechanical stimulation [1]: suppressed the development of hypersensitivity to mechanical stimulation |
| 80.1 | 18.5 | 20 | 77.4 | 14.7 | 35 | 19.3 | 23.6 | 27.7 | O=C(NCc1ccc(F)cc1Cl)[C@]1(F)CC[C@@](O)(CO)c2ncccc21 [Compound 7, (5S,8S)-N-(2-chloro-4-fluorobenzyl)-5-fluoro-8-hydroxy-8-(hydroxymethyl)-5,6,7,8-tetrahydroquinoline-5-carboxamide] | sufficient distribution to blood, brain and spinal cord | Exposure to the cerebrospinal fluid [2]: Sufficient Exposure; Pain threshold value (paw pressure) lowered by CCI surgery (CCI model rats): significantly increased in all the administration groups; Pain threshold value for mechanical stimulation lowered by SNL surgery (SNL model rats): significantly increased |
| 48.8 | 9.54 | 20 | 45.6 | 8.27 | 15 | 5.08 | 9.22 | 11.4 | O=C(NCc1ccc(Cl)cc1Cl)[C@]1(F)CC[C@@](O)(CO)c2ncccc21 [Compound 10, (5S,8S)-N-(2,4-dichlorobenzyl)-5-fluoro-8-hydroxy-8-(hydroxymethyl)-5,6,7,8-tetrahydroquinoline-5-carboxamide] | sufficient distribution to blood, brain and spinal cord | – |
| – | – | – | – | – | – | – | – | – | Clc1cccc(-c2nnnn2Cc2cccnc2)c1Cl [Compound A-438079] | – | Effect on bone cancer-related behavior [5]: could not alleviate bone cancer-related behavior |
| – | – | – | – | – | – | – | – | – | COc1ccc(CC(=O)NC(NC(=NC#N)Nc2cccc3ncccc23)C(C)(C)C)cc1OC (stereo not shown) [Compound A-740003, N-(1-{[(cyanoimo) (5-quinolinylamino)methyl]amino}-2,2-dimethylpropyl)-2-(3,4-dimethoxyphenyl)acetamide] | – | Effect on neuropathic pain (neuropathic pain in rats): reduced neuropathic pain in rats in a dose-dependent manner |
| – | – | – | – | – | – | – | – | – | O=C(NCC1(N2CCN(c3ccccc3)CC2)CCOCC1)c1cccnc1Sc1ccccc1 [JNJ-47965567] | – | Efficacy in neuropathy model rats (neuropathy model rats): not a large but a significant efficacy; Effect on amphetamine-induced hypersensitivity [6]: alleviated the amphetamine-induced hypersensitivity |
